We go through 30 compounds from US10906915B2, “Substituted pyrazoloazepin-4-ones and their use as phosphodiesterase inhibitors” (LEO Pharma A/S, priority 2016, dated 2021).

Sequence of human PDE4D catalytic domain (Q08499 380-740 limits assumed): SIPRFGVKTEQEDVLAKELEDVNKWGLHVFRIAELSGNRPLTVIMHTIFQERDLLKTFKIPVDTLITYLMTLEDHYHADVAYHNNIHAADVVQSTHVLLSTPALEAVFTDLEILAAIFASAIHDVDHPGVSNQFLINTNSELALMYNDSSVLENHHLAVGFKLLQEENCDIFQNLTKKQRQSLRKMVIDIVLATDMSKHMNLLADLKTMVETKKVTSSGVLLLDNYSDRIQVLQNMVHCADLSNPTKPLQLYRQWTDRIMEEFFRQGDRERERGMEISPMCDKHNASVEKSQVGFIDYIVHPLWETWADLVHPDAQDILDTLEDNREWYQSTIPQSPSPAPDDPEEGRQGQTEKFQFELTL

The target of this test is human PDE4D catalytic domain (UniProt no. Q08499) (Homo sapiens (Human), UniProt Q08499). Kind of test: PDE4 assay (TR-FRET, FAM-cAMP cleavage). In kind it is biochemical. The note with it: human PDE4D catalytic domain; molar concentration giving 50% inhibition of substrate cleavage; read-out: PDE4 IC50 range. In a few lines:
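Read-out is time-resolved FRET from Tb donor to FAM-AMP captured on trivalent-metal nanoparticles added to stop the reaction. Substrate was a mix of plain and FAM-labelled cAMP, cleaved by human PDE4D catalytic domain ([…]) with titrated compound; IC50 ranges (nM) versus controls.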
In general, IC50 refers to the concentration at which inhibition is half-maximal. For `CCc1nn(CCCOC(=O)c2ccc(C)cc2Cl)c2c1C(=O)NCC1(CCOCC1)C2` [Example 73, 3-(3-ethyl-4-oxo-spiro[6,8-dihydro-5H-pyrazolo[4,3-c]azepine-7,4′-tetrahydropyran]-1-yl)propyl 2-chloro-4-methyl-benzoate], the IC50 is less than 100 nM.
Consider `CCc1nn(CCCOC(=O)c2cccc(Cl)c2C)c2c1C(=O)NCC1(CCOCC1)C2` [Example 74, 3-(3-ethyl-4-oxo-spiro[6,8-dihydro-5H-pyrazolo[4,3-c]azepine-7,4′-tetrahydropyran]-1-yl)propyl 3-chloro-2-methyl-benzoate], for which the IC50 was less than 100 nM.
Then `CCc1nn(CCCOC(=O)c2cc(Cl)ccc2C)c2c1C(=O)NCC1(CCOCC1)C2` [Example 75, 3-(3-ethyl-4-oxo-spiro[6,8-dihydro-5H-pyrazolo[4,3-c]azepine-7,4′-tetrahydropyran]-1-yl)propyl 5-chloro-2-methyl-benzoate], with less than 100 nM.
Take `CCc1nn(CCCOC(=O)c2ccc(C(F)F)cc2)c2c1C(=O)NCC1(CCOCC1)C2` [Example 76, 3-(3-ethyl-4-oxo-spiro[6,8-dihydro-5H-pyrazolo[4,3-c]azepine-7,4′-tetrahydropyran]-1-yl)propyl 4-(difluoromethyl)benzoate]: the IC50 is less than 100 nM.
Take `CCc1nn(CCCOC(=O)c2ccc(F)cc2Cl)c2c1C(=O)NCC1(CCOCC1)C2` [Example 77, 3-(3-ethyl-4-oxo-spiro[6,8-dihydro-5H-pyrazolo[4,3-c]azepine-7,4′-tetrahydropyran]-1-yl)propyl 2-chloro-4-fluoro-benzoate]: the IC50 is less than 100 nM.
Consider `CCc1nn(CCCOC(=O)c2cccc(Cl)c2F)c2c1C(=O)NCC1(CCOCC1)C2` [Example 78, 3-(3-ethyl-4-oxo-spiro[6,8-dihydro-5H-pyrazolo[4,3-c]azepine-7,4′-tetrahydropyran]-1-yl)propyl 3-chloro-2-fluoro-benzoate], for which the 50% inhibitory concentration (IC50) is less than 100 nM.
With `CCc1nn(CCCOC(=O)c2cc(F)cc(Cl)c2)c2c1C(=O)NCC1(CCOCC1)C2` [Example 79, 3-(3-ethyl-4-oxo-spiro[6,8-dihydro-5H-pyrazolo[4,3-c]azepine-7,4′-tetrahydropyran]-1-yl)propyl 3-chloro-5-fluoro-benzoate], the half-maximal inhibitory concentration (IC50) is less than 100 nM.
The value for `CCc1nn(CCCOC(=O)c2c(F)cccc2Cl)c2c1C(=O)NCC1(CCOCC1)C2` [Example 80, 3-(3-ethyl-4-oxo-spiro[6,8-dihydro-5H-pyrazolo[4,3-c]azepine-7,4′-tetrahydropyran]-1-yl)propyl 2-chloro-6-fluoro-benzoate] was less than 100 nM.
The value for `CCc1nn(CCCOC(=O)c2ccc(Cl)c(F)c2)c2c1C(=O)NCC1(CCOCC1)C2` [Example 81, 3-(3-ethyl-4-oxo-spiro[6,8-dihydro-5H-pyrazolo[4,3-c]azepine-7,4′-tetrahydropyran]-1-yl)propyl 4-chloro-3-fluoro-benzoate] was less than 100 nM.
Regarding `CCc1nn(CCCOC(=O)c2cc(F)ccc2Cl)c2c1C(=O)NCC1(CCOCC1)C2` [Example 82, 3-(3-ethyl-4-oxo-spiro[6,8-dihydro-5H-pyrazolo[4,3-c]azepine-7,4′-tetrahydropyran]-1-yl)propyl 2-chloro-5-fluoro-benzoate], the IC50 was less than 100 nM.
As to `CCc1nn(CCCOC(=O)c2cc(Cl)ccc2F)c2c1C(=O)NCC1(CCOCC1)C2` [Example 83, 3-(3-ethyl-4-oxo-spiro[6,8-dihydro-5H-pyrazolo[4,3-c]azepine-7,4′-tetrahydropyran]-1-yl)propyl 5-chloro-2-fluoro-benzoate], the IC50 is less than 100 nM.
The value for `CCc1nn(CCCOC(=O)c2ccc(F)c(Cl)c2)c2c1C(=O)NCC1(CCOCC1)C2` [Example 84, 3-(3-ethyl-4-oxo-spiro[6,8-dihydro-5H-pyrazolo[4,3-c]azepine-7,4′-tetrahydropyran]-1-yl)propyl 3-chloro-4-fluoro-benzoate] was less than 100 nM; that for `CCc1nn(CCCOC(=O)c2ccc(Cl)cc2F)c2c1C(=O)NCC1(CCOCC1)C2` [Example 85, 3-(3-ethyl-4-oxo-spiro[6,8-dihydro-5H-pyrazolo[4,3-c]azepine-7,4′-tetrahydropyran]-1-yl)propyl 4-chloro-2-fluoro-benzoate] was less than 100 nM; that for `CCc1nn(CCCOC(=O)c2ccc(OC)c(Cl)c2)c2c1C(=O)NCC1(CCOCC1)C2` [Example 86, 3-(3-ethyl-4-oxo-spiro[6,8-dihydro-5H-pyrazolo[4,3-c]azepine-7,4′-tetrahydropyran]-1-yl)propyl 3-chloro-4-methoxy-benzoate] was less than 100 nM.
The value for `CCc1nn(CCCOC(=O)c2ccc(Cl)c(OC)c2)c2c1C(=O)NCC1(CCOCC1)C2` [Example 87, 3-(3-ethyl-4-oxo-spiro[6,8-dihydro-5H-pyrazolo[4,3-c]azepine-7,4′-tetrahydropyran]-1-yl)propyl 4-chloro-3-methoxy-benzoate] was less than 100 nM.
The value for `CCc1nn(CCCOC(=O)c2cc(Cl)cc(OC)c2)c2c1C(=O)NCC1(CCOCC1)C2` [Example 88, 3-(3-ethyl-4-oxo-spiro[6,8-dihydro-5H-pyrazolo[4,3-c]azepine-7,4′-tetrahydropyran]-1-yl)propyl 3-chloro-5-methoxy-benzoate] was less than 100 nM.
In the case of `CCc1nn(CCCOC(=O)c2ccc(OC)cc2Cl)c2c1C(=O)NCC1(CCOCC1)C2` [Example 89, 3-(3-ethyl-4-oxo-spiro[6,8-dihydro-5H-pyrazolo[4,3-c]azepine-7,4′-tetrahydropyran]-1-yl)propyl 2-chloro-4-methoxy-benzoate], the IC50 was less than 100 nM.
The value for `CCc1nn(CCCOC(=O)c2cc(OC)ccc2Cl)c2c1C(=O)NCC1(CCOCC1)C2` [Example 90, 3-(3-ethyl-4-oxo-spiro[6,8-dihydro-5H-pyrazolo[4,3-c]azepine-7,4′-tetrahydropyran]-1-yl)propyl 2-chloro-5-methoxy-benzoate] was less than 100 nM; that for `CCc1nn(CCCOC(=O)c2cccc(OC)c2Cl)c2c1C(=O)NCC1(CCOCC1)C2` [Example 91, 3-(3-ethyl-4-oxo-spiro[6,8-dihydro-5H-pyrazolo[4,3-c]azepine-7,4′-tetrahydropyran]-1-yl)propyl 2-chloro-3-methoxy-benzoate] was less than 100 nM; that for `CCc1nn(CCCOC(=O)c2ccc(Cl)cc2OC)c2c1C(=O)NCC1(CCOCC1)C2` [Example 92, 3-(3-ethyl-4-oxo-spiro[6,8-dihydro-5H-pyrazolo[4,3-c]azepine-7,4′-tetrahydropyran]-1-yl)propyl 4-chloro-2-methoxy-benzoate] was less than 100 nM.
As for `CCc1nn(CCCOC(=O)c2cc(Cl)ccc2OC)c2c1C(=O)NCC1(CCOCC1)C2` [Example 93, 3-(3-ethyl-4-oxo-spiro[6,8-dihydro-5H-pyrazolo[4,3-c]azepine-7,4′-tetrahydropyran]-1-yl)propyl 5-chloro-2-methoxy-benzoate], the IC50 is less than 100 nM.
The value for `CCc1nn(CCCOC(=O)c2cccc(Cl)c2OC)c2c1C(=O)NCC1(CCOCC1)C2` [Example 94, 3-(3-ethyl-4-oxo-spiro[6,8-dihydro-5H-pyrazolo[4,3-c]azepine-7,4′-tetrahydropyran]-1-yl)propyl 3-chloro-2-methoxy-benzoate] was less than 100 nM; that for `CCc1nn(CCCOC(=O)c2ccccc2C(F)(F)F)c2c1C(=O)NCC1(CCOCC1)C2` [Example 95, 3-(3-ethyl-4-oxo-spiro[6,8-dihydro-5H-pyrazolo[4,3-c]azepine-7,4′-tetrahydropyran]-1-yl)propyl 2-(trifluoromethyl)benzoate] was less than 100 nM; that for `CCc1nn(CCCOC(=O)c2cccc(C(F)(F)F)c2)c2c1C(=O)NCC1(CCOCC1)C2` [Example 96, 3-(3-ethyl-4-oxo-spiro[6,8-dihydro-5H-pyrazolo[4,3-c]azepine-7,4′-tetrahydropyran]-1-yl)propyl 3-(trifluoromethyl)benzoate] was less than 100 nM.
Then `CCc1nn(CCCOC(=O)c2ccc(C(F)(F)F)cc2)c2c1C(=O)NCC1(CCOCC1)C2` [Example 97, 3-(3-ethyl-4-oxo-spiro[6,8-dihydro-5H-pyrazolo[4,3-c]azepine-7,4′-tetrahydropyran]-1-yl)propyl 4-(trifluoromethyl)benzoate], with less than 100 nM; and `CCc1nn(CCCOC(=O)c2ccc(S(C)(=O)=O)cc2)c2c1C(=O)NCC1(CCOCC1)C2` [Example 98, 3-(3-ethyl-4-oxo-spiro[6,8-dihydro-5H-pyrazolo[4,3-c]azepine-7,4′-tetrahydropyran]-1-yl)propyl 4-methylsulfonylbenzoate], with less than 100 nM; and `CCc1nn(CCCOC(=O)c2cccc(S(C)(=O)=O)c2)c2c1C(=O)NCC1(CCOCC1)C2` [Example 99, 3-(3-ethyl-4-oxo-spiro[6,8-dihydro-5H-pyrazolo[4,3-c]azepine-7,4′-tetrahydropyran]-1-yl)propyl 3-methylsulfonylbenzoate], with less than 100 nM.
Then `CCc1nn(CCCOC(=O)c2ccccc2S(C)(=O)=O)c2c1C(=O)NCC1(CCOCC1)C2` [Example 100, 3-(3-ethyl-4-oxo-spiro[6,8-dihydro-5H-pyrazolo[4,3-c]azepine-7,4′-tetrahydropyran]-1-yl)propyl 2-methylsulfonylbenzoate], with less than 100 nM; and `CCc1nn(CCCOC(=O)c2ccc(S(N)(=O)=O)cc2)c2c1C(=O)NCC1(CCOCC1)C2` [Example 101, 3-(3-ethyl-4-oxo-spiro[6,8-dihydro-5H-pyrazolo[4,3-c]azepine-7,4′-tetrahydropyran]-1-yl)propyl 4-sulfamoylbenzoate], with less than 100 nM; and `CCc1nn(CCCOC(=O)c2cccc(S(N)(=O)=O)c2)c2c1C(=O)NCC1(CCOCC1)C2` [Example 102, 3-(3-ethyl-4-oxo-spiro[6,8-dihydro-5H-pyrazolo[4,3-c]azepine-7,4′-tetrahydropyran]-1-yl)propyl 3-sulfamoylbenzoate], with less than 100 nM.
